# Results as given in US4670260A, “Antibiotic for animal feeds” (Bayer Aktiengesellschaft, priority 1984, dated 1987).
# Test system: Streptomyces strain BA 9
# Assay: Growth inhibition of producing strain BA 9 by antibiotics
# Assay type: cell-based, Streptomyces sp.
# Conditions: ISP medium No. 1+, 28° C., 2 d
# Procedure: The optimum temperature is 28° (ISP medium No. 1^+, 5 d). No growth was observed on ISP medium No. 7 (tyrosine agar). Melanin is formed on ISP medium No. 6. The growth is inhibited by chloramphenicol (10 μg); erythromycin (10 μg), sulphafurazole (100 μg), streptomycin (10 μg), tetracycline (10 μg), chephaloridine (5 μg) fusidic acid (10 μg), lincomycin (10 μg) and novobiocib (5 μg) (ISP medium No. 1^+, 28° C., 2 d). Growth was good (substrate mycelium) on ISP media Nos. 3, 4 and 5, with sparse formation of aerial mycelium on ISP medium Nos. 3 and 5.
Compound,growth inhibition of strain BA 9 (10 μg),also measured
O=C(Cc1cccs1)N[C@@H]1C(=O)N2C(C(=O)[O-])=C(C[n+]3ccccc3)CS[C@H]12 [chephaloridine],,growth inhibition of strain BA 9 (5 μg): inhibited
O=C(N[C@H](CO)[C@H](O)c1ccc([N+](=O)[O-])cc1)C(Cl)Cl [chloramphenicol],inhibited,
CC[C@H]1OC(=O)[C@H](C)[C@@H](O[C@H]2C[C@@](C)(OC)[C@@H](O)[C@H](C)O2)[C@H](C)[C@@H](O[C@@H]2O[C@H](C)C[C@H](N(C)C)[C@H]2O)[C@](C)(O)C[C@@H](C)C(=O)[C@H](C)[C@@H](O)[C@]1(C)O [erythromycin],inhibited,
CC(=O)O[C@H]1C[C@@]2(C)[C@@H](C[C@@H](O)[C@H]3[C@@]4(C)CC[C@@H](O)[C@@H](C)[C@@H]4CC[C@@]32C)/C1=C(\CCC=C(C)C)C(=O)O [fusidic acid],inhibited,
CCC[C@@H]1C[C@@H](C(=O)N[C@@H]([C@H]2O[C@H](SC)[C@H](O)[C@@H](O)[C@H]2O)[C@@H](C)O)N(C)C1 [lincomycin],inhibited,
CO[C@@H]1[C@@H](OC(N)=O)[C@@H](O)[C@H](Oc2ccc3c(O)c(NC(=O)c4ccc(O)c(CC=C(C)C)c4)c(=O)oc3c2C)OC1(C)C [novobiocib],,growth inhibition of strain BA 9 (5 μg): inhibited
[H]/N=C(/N)N[C@H]1[C@H](O)[C@@H](O)[C@H](O[C@@H]2O[C@@H](C)[C@](O)(C=O)[C@H]2O[C@@H]2O[C@@H](CO)[C@H](O)[C@@H](O)[C@@H]2NC)[C@@H](N/C(N)=N\[H])[C@@H]1O [streptomycin],inhibited,
Cc1noc(NS(=O)(=O)c2ccc(N)cc2)c1C [sulphafurazole],,growth inhibition of strain BA 9 (100 μg): inhibited
CN(C)C1C(=O)C(C(N)=O)=C(O)C2(O)C(=O)C3=C(O)c4c(O)cccc4C(C)(O)C3CC12 (stereo not drawn) [tetracycline],inhibited,
